Experimental data taken from patent US8293732B2, “Antibacterial quinoline derivatives” (Janssen Pharmaceutica N.V., priority 2006, dated 2012).
In brackets after ≈: the same amount, converted by molar mass.

Legend:
[1] = test system: Streptococcus pneumoniae (ATCC6305); assay: In-vitro anti-bacterial microtitre plate assay, IC90 determination (SPN 1 6305); assay type: cell-based; settings: 90% inhibitory concentration for bacterial growth, 37° C., resazurin fluorescence; for IC90: Streptococcus pneumoniae, ATCC6305, 24 h; for IC90 values SPN 1 6305: 24 hours
Method: (§1) The bacteria used in this study were grown overnight in flasks containing 100 ml Mueller-Hinton Broth (Becton Dickinson—cat. no. 275730) in sterile de-ionized water, with shaking, at 37° C. Stocks (0.5 ml/tube) were stored at −70° C. until use. Bacteria titrations were performed in microtiter plates to detect the TCID50, in which the TCID50 represents the dilution that gives rise to bacterial growth in 50% of inoculated cultures.
(§2) In general, an inoculum level of approximately 100 TCID50 was used for susceptibility testing.
(§3) Flat-bottom, sterile 96-well plastic microtiter plates were filled with 180 μl of sterile deionized water, supplemented with 0.25% BSA. Subsequently, stock solutions (7.8× final test concentration) of compounds were added in 45 μl volumes in column 2. Serial five-fold dilutions (45 μl in 180 μl) were made directly in the microtiter plates from column 2 to reach column 11. Untreated control samples with (column 1) and without (column 12) inoculum were included in each microtiter plate. Depending on the bacteria type, approximately 10 to 60 CFU per well of bacteria inoculum (100 TCID50), in a volume of 100 μl in 2.8× Mueller-Hinton broth medium, was added to the rows A to H, except column 12. The same volume of broth medium without inoculum was added to column 12 in row A to H. The cultures were incubated at 37° C. for 24 hours under a normal atmosphere (incubator with open air valve and continuous ventilation). At the end of incubation, one day after inoculation, the bacterial growth was quantitated fluorometrically. Therefore resazurin (0.6 mg/ml) was added in a volume of 20 μl to all wells 3 hours after inoculation, and the plates were re-incubated overnight. A change in colour from blue to pink indicated the growth of bacteria. The fluorescence was read in a computer-controlled fluorometer (Cytofluor Biosearch) at an excitation wavelength of 530 nm and an emission wavelength of 590 nm. The % growth inhibition achieved by the compounds was calculated according to standard methods.
(§4) STA 29213 means Staphylococcus aureus (ATCC29213); SPN 6305 means Streptococcus pneumoniae (ATCC6305); MSM 607 means M. Smegmatis (ATCC607); ATCC means […].

M. Smegmatis (ATCC607) = assay: In-vitro anti-bacterial activity against strain M. Smegmatis ATCC607; assay type: cell-based; settings: 90% inhibitory concentration for bacterial growth, 37° C., Alamar Blue fluorescence; for IC90: Mycolicibacterium smegmatis, ATCC607, 48 h, read-out: IC90 values MSM 1 ATCC607; for IC90 values MSM 1 ATCC607: 48 hours
Method: Flat-bottom, sterile 96-well plastic microtiter plates were filled with 180 μl of sterile deionized water, supplemented with 0.25% BSA. Subsequently, stock solutions (7.8× final test concentration) of compounds were added in 45 μl volumes to a series of duplicate wells in column 2 so as to allow evaluation of their effects on bacterial growth. Serial five-fold dilutions (45 μl in 180 μl) were made directly in the microtiter plates from column 2 to 11 using a customised robot system (Zymark Corp., Hopkinton, Mass.). Pipette tips were changed after every 3 dilutions to minimize pipetting errors with high hydrophobic compounds. Untreated control samples with (column 1) and without (column 12) inoculum were included in each microtiter plate. Approximately 250 CFU per well of bacteria inoculum, in a volume of 100 μl in 2.8× Mueller-Hinton broth medium, was added to the rows A to H, except column 12. The same volume of broth medium without inoculum was added to column 12 in row A to H. The cultures were incubated at 37° C. for 48 hours in a humidified 5% CO2 atmosphere (incubator with open air valve and continuous ventilation). At the end of incubation, two days after inoculation, the bacterial growth was quantitated fluorometrically. Therefore Alamar Blue (10×) was added to all wells in a volume of 20 μl and plates were incubated for another 2 hours at […]
The fluorescence was read in a computer-controlled fluorometer (Cytofluor, Biosearch) at an excitation wavelength of 530 nm and an emission wavelength of 590 nm (gain 30).
as §4

[2] = test system: Staphylococcus aureus (ATCC29213); assay: In-vitro anti-bacterial microtitre plate assay, IC90 determination (STA 1 B29213); assay type: cell-based; settings: 90% inhibitory concentration for bacterial growth, 37° C., resazurin fluorescence; for IC90 values STA 1 B29213: 24 hours; for IC90: Staphylococcus aureus, ATCC29213, 24 h
Method: as §1, §2, §3, §4

IC90 [1]	IC90 values STA 1 B29213 [2]	melting point	IC90 values SPN 1 6305 [1]	IC90 [2]	Compound	IC90 (M. Smegmatis (ATCC607))	IC90 values MSM 1 ATCC607 (M. Smegmatis (ATCC607))
–	1.84 µg/mL (≈ 3.16 µM)	210 °C	–	–	COc1nc2ccccc2cc1C(c1ccc(-c2ccncc2)cc1)C(O)(CCCCN(C)C)c1ccc2ccccc2c1 (single isomer, unassigned) [Compound 48]	–	1.04 µg/mL (≈ 1.79 µM)
2.3 µg/mL (≈ 3.92 µM)	–	–	–	1.9 µg/mL (≈ 3.24 µM)	COc1nc2ccccc2cc1C(c1ccc(-c2cccs2)cc1)C(O)(CCCCN(C)C)c1ccc2ccccc2c1 (single isomer, unassigned) [Compound 14]	1.9 µg/mL (≈ 3.24 µM)	–
–	1.8 µg/mL (≈ 3.09 µM)	–	1.8 µg/mL (≈ 3.09 µM)	–	COc1nc2ccccc2cc1C(c1cccc(-c2ccncc2)c1)C(O)(CCCCN(C)C)c1ccc2ccccc2c1 (single isomer, unassigned) [Compound 9]	–	1.5 µg/mL (≈ 2.58 µM)
–	1.8 µg/mL (≈ 3.09 µM)	–	1.85 µg/mL (≈ 3.18 µM)	–	COc1nc2ccccc2cc1C(c1ccc(-c2cccnc2)cc1)C(O)(CCCCN(C)C)c1ccc2ccccc2c1 (single isomer, unassigned) [Compound 7b]	–	1.5 µg/mL (≈ 2.58 µM)
2 µg/mL (≈ 3.5 µM)	–	–	–	1.8 µg/mL (≈ 3.15 µM)	COc1nc2ccccc2cc1C(c1ccc(-c2ccoc2)cc1)C(O)(CCCCN(C)C)c1ccc2ccccc2c1 (single isomer, unassigned) [Compound 12]	1.8 µg/mL (≈ 3.15 µM)	–
–	1.9 µg/mL (≈ 3.25 µM)	–	1.9 µg/mL (≈ 3.25 µM)	–	COc1nc2ccccc2cc1C(c1ccc(-c2cnn(C)c2)cc1)C(O)(CCCCN(C)C)c1ccc2ccccc2c1 (single isomer, unassigned) [Compound 11]	–	1.9 µg/mL (≈ 3.25 µM)
1.8 µg/mL (≈ 3.09 µM)	9.2 µg/mL (≈ 15.8 µM)	–	–	–	COc1nc2ccccc2cc1C(c1cccc(-c2ccncc2)c1)C(O)(CCCCN(C)C)c1ccc2ccccc2c1 (single isomer, unassigned) [Compound 8]	1.8 µg/mL (≈ 3.09 µM)	–
2.02 µg/mL (≈ 3.16 µM)	–	–	–	2.02 µg/mL (≈ 3.16 µM)	COc1ccc(-c2cccc(C(O)(CCCCN(C)C)C(c3ccccc3)c3cc4cc(Br)ccc4nc3OC)c2)cc1 (single isomer, unassigned) [Compound 38]	–	10.14 µg/mL (≈ 15.9 µM)
1.97 µg/mL (≈ 3.16 µM)	–	–	–	1.97 µg/mL (≈ 3.16 µM)	COc1nc2ccc(Br)cc2cc1C(c1ccccc1)C(O)(CCCCN(C)C)c1cccc(-c2ccc(C)cc2)c1 (single isomer, unassigned) [Compound 40]	–	7.85 µg/mL (≈ 12.6 µM)

Further lines, the molecule ahead of its results:

Compound	IC90 [1]	IC90 values STA 1 B29213 [2]	melting point	IC90 values SPN 1 6305 [1]	IC90 [2]	IC90 (M. Smegmatis (ATCC607))	IC90 values MSM 1 ATCC607 (M. Smegmatis (ATCC607))
COc1nc2ccc(Br)cc2cc1C(c1ccccc1)C(O)(CCCCN(C)C)COc1ccc(C)cc1 (single isomer, unassigned) [Compound 5]	4.1 µg/mL (≈ 7.1 µM)	4.1 µg/mL (≈ 7.1 µM)	146 °C	–	–	1.8 µg/mL (≈ 3.12 µM)	–
COc1nc2ccc(Br)cc2cc1C(c1ccccc1)C(O)(CCCCN(C)C)c1cccc(-c2ccc(Cl)cc2)c1 (single isomer, unassigned) [Compound 34]	–	0.91 µg/mL (≈ 1.41 µM)	–	0.72 µg/mL (≈ 1.12 µM)	–	–	1.29 µg/mL (≈ 2 µM)
COc1nc2ccc(Br)cc2cc1C(c1ccccc1)C(O)(CCCCN(C)C)c1cccc(-c2ccccc2)c1 (single isomer, unassigned) [Compound 32]	–	1.93 µg/mL (≈ 3.17 µM)	–	1.93 µg/mL (≈ 3.17 µM)	–	–	0.97 µg/mL (≈ 1.59 µM)
COc1nc2ccc(Br)cc2cc1C(c1ccc(Cl)cc1)C(O)(CCCCN1CCN(C)CC1)COc1ccccc1 (single isomer, unassigned) [Compound 22]	–	32.7 µg/mL (≈ 50.1 µM)	158 °C	11.6 µg/mL (≈ 17.8 µM)	–	–	8.2 µg/mL (≈ 12.6 µM)
COc1nc2ccc(Br)cc2cc1C(c1ccc2c(c1)OCO2)C(O)(CCN(C)C)c1ccccc1 (single isomer, unassigned) [Compound 29]	–	3.1 µg/mL (≈ 5.64 µM)	–	0.4 µg/mL (≈ 0.728 µM)	–	–	1.7 µg/mL (≈ 3.09 µM)
COc1nc2ccc(Br)cc2cc1C(c1ccccc1)C(O)(CCCCN(C)C)c1cccc(/C=C/c2ccccc2)c1 (single isomer, unassigned) [Compound 41]	–	–	–	2.01 µg/mL (≈ 3.16 µM)	2.01 µg/mL (≈ 3.16 µM)	–	0.40 µg/mL (≈ 0.629 µM)
COc1nc2ccc(Br)cc2cc1C(c1ccc(Cl)cc1)C(O)(CCCCN1CCN(C)CC1)COc1ccccc1 (single isomer, unassigned) [Compound 21]	–	2.1 µg/mL (≈ 3.22 µM)	–	2.6 µg/mL (≈ 3.98 µM)	–	–	2.1 µg/mL (≈ 3.22 µM)
COc1nc2ccc(Br)cc2cc1C(c1ccoc1)C(O)(CCc1ccc(F)cc1)CCN(C)C (single isomer, unassigned) [Compound 53]	–	–	122 °C	–	8.58 µg/mL (≈ 15.8 µM)	1.71 µg/mL (≈ 3.16 µM)	–
COc1nc2ccc(Br)cc2cc1C(c1ccccc1)C(O)(CCCCN1CCN(C)CC1)COCc1ccccc1 (single isomer, unassigned) [Compound 27]	–	4.5 µg/mL (≈ 7.11 µM)	–	2.2 µg/mL (≈ 3.48 µM)	–	–	2.0 µg/mL (≈ 3.16 µM)
COc1nc2ccc(Br)cc2cc1C(c1ccccc1)C(O)(CCCCN(C)C)c1cccc(-c2ccc(Cl)cc2)c1 (single isomer, unassigned) [Compound 33]	–	2.04 µg/mL (≈ 3.17 µM)	–	1.82 µg/mL (≈ 2.83 µM)	–	2.04 µg/mL (≈ 3.17 µM)	–
COc1nc2ccc(Br)cc2cc1C(c1ccccc1)C(O)(CCCCN(C)C)c1cccc(/C=C/c2ccccc2)c1 (single isomer, unassigned) [Compound 55]	–	2.01 µg/mL (≈ 3.16 µM)	–	0.898 µg/mL (≈ 1.41 µM)	–	–	1.792 µg/mL (≈ 2.82 µM)
COc1nc2ccc(Br)cc2cc1C(c1ccccc1)C(O)(CCCCN1CCCCC1)COCc1ccccc1 (single isomer, unassigned) [Compound 25]	–	2.5 µg/mL (≈ 4.05 µM)	–	2.0 µg/mL (≈ 3.24 µM)	–	–	2.0 µg/mL (≈ 3.24 µM)
COc1nc2ccc(Br)cc2cc1C(c1ccc(Cl)cc1)C(O)(CCCCN(C)C)COc1ccccc1 (single isomer, unassigned) [Compound 3]	–	9.5 µg/mL (≈ 15.9 µM)	–	11.9 µg/mL (≈ 19.9 µM)	–	1.7 µg/mL (≈ 2.84 µM)	–
COc1nc2ccc(Br)cc2cc1C(c1ccccc1)C(O)(CCCCN1CCCCC1)COCc1ccccc1 (single isomer, unassigned) [Compound 26]	2 µg/mL (≈ 3.24 µM)	–	–	–	2 µg/mL (≈ 3.24 µM)	2 µg/mL (≈ 3.24 µM)	–
COc1nc2ccc(Br)cc2cc1C(c1ccccc1)C(O)(CCCCN1CCN(C)CC1)COc1ccccc1 (single isomer, unassigned) [Compound 19]	–	4.4 µg/mL (≈ 7.11 µM)	–	2.5 µg/mL (≈ 4.04 µM)	–	–	2.0 µg/mL (≈ 3.23 µM)
COc1nc2ccc(Br)cc2cc1C(c1ccccc1)C(O)(CCCCN(C)C)c1cccc(-c2ccccc2)c1 (single isomer, unassigned) [Compound 31]	–	–	–	0.86 µg/mL (≈ 1.41 µM)	1.93 µg/mL (≈ 3.17 µM)	1.93 µg/mL (≈ 3.17 µM)	–
COc1nc2ccc(Br)cc2cc1C(c1ccccc1)C(O)(CCCCN1CCN(C)CC1)COc1ccc(C)cc1 (single isomer, unassigned) [Compound 23]	–	2.0 µg/mL (≈ 3.16 µM)	–	2.0 µg/mL (≈ 3.16 µM)	–	–	2.0 µg/mL (≈ 3.16 µM)
